Measured values as given in ChEMBL document CHEMBL4842340, “Development of Cagrilintide, a Long-Acting Amylin Analogue” (J Med Chem, 2021).
Values after ≈ are worked out from the molar mass of the structure shown. *1 amine or outer side, *2 acyl side, *3 side chain or, on linkers, in order; H or OH if unused. Where a SMILES comes first, the peptide text is derived from it. Bridges are numbered along the chain shown (N, C = ends). The star is where a group is joined. C20 diacid = O=C(O)CCCCCCCCCCCCCCCCCCC(=O)*; γGlu = O=C(O)[C@H](CCC(=O)[*:2])N[*:1]

Experiments:
[1] = Agonist activity at rat AMY3R (CT+RAMP3) expressed in tk-ts13 cells assessed as increase in intracellular cAMP level incuabted for 25 mins by CRE luciferase reporter gene assay; type: cell-based; conditions: tk-ts13, 25 min
[2] = Solubility of the compound in bis-tris propane at pH 7.5 by UPLC analysis; type: physicochemical; conditions: bis-tris propane buffer
[3] = Solubility of the compound in lactate at pH 5 by UPLC analysis; type: physicochemical; conditions: lactate buffer
[4] = Apparent volume of distribution in Sprague-Dawley rat at 10 nmol/kg, iv measured up to 96 hrs by LC-MS analysis; type: ADME, organism-based; conditions: in vivo, read-out: Vz
[5] = Agonist activity at rat calcitonin receptor expressed in BHK-13 cells assessed as increase in intracellular cAMP concentration incubated for 25 mins by CRE luciferase reporter gene assay; type: cell-based; conditions: BHK-13, 25 min
[6] = Clearance in Sprague-Dawley rat at 10 nmol/kg, iv measured up to 96 hrs by LC-MS analysis; type: ADME, organism-based; conditions: in vivo
[7] = Solubility of the compound in bis-tris propane at pH 6.5 by UPLC analysis; type: physicochemical; conditions: bis-tris propane buffer
[8] = Dose normalized AUC in Sprague-Dawley rat at 10 nmol/kg, sc measured up to 96 hrs by LC-MS analysis; type: ADME, organism-based; conditions: in vivo
Rattus norvegicus [9] = organism: Rattus norvegicus; test: Ratio of EC50 for rat calcitonin receptor expressed in BHK-13 cells to EC50 for rat AMY3R (CT+RAMP3) expressed in tk-ts13 cells; type: cell-based
[10] = Solubility of the compound in lactate at pH 3 by UPLC analysis; type: physicochemical; conditions: lactate buffer
Rattus norvegicus [11] = organism: Rattus norvegicus; test: Ratio of IC50 for displacement of [125I]-calcitonin from rat calcitonin receptor expressed in tk-ts 13 cells to IC50 for displacement of [125I]-amylin from rat AMY3R (CTR+RAMP3) expressed in BHK-13 cells; type: cell-based
[12] = Displacement of [125I]-amylin from rat AMY3R (CTR+RAMP3) expressed in BHK-13 cells measured after 120 mins by scintillation proximity assay; type: cell-based
[13] = Dose normalized AUC in Sprague-Dawley rat at 10 nmol/kg, iv measured up to 96 hrs by LC-MS analysis; type: ADME, organism-based; conditions: in vivo
[14] = Agonist activity at human AMY3R (CT+RAMP3) expressed in Hollex1 cells incubated for 3 hrs by luminescence assay; type: cell-based; conditions: Hollex1, 3 h
[15] = Solubility of the compound in bis-tris propane at pH 7 by UPLC analysis; type: physicochemical; conditions: bis-tris propane buffer
Insulin (Homo sapiens) [16] = biological target: Insulin (Homo sapiens) (UniProt P01308); test: Effect on insulin (unknown origin) amyloid fibril formation assessed as lag time in HEPES buffer at pH 7.5 measured after 45 hrs by thioflavin-T fluorescence assay
Rattus norvegicus [17] = test: Reduction in food intake in Sprague-Dawley rat at 30 nmol/kg, sc administered as single dose measured upto 24 hrs relative to control; type: functional; design: scale not given: the % may be the effect or the level left; conditions: time hrs <=24
[18] = Half life in Sprague-Dawley rat at 10 nmol/kg, sc measured up to 96 hrs by LC-MS analysis; type: ADME, organism-based; conditions: in vivo
[19] = Displacement of [125I]-calcitonin from human calcitonin receptor expressed in tk-ts 13 cells measured after 120 mins by scintillation proximity assay; type: cell-based; conditions: tk-ts13
[20] = Solubility of the compound in bis-tris propane at pH 8 by UPLC analysis; type: physicochemical; conditions: bis-tris propane buffer
[21] = Displacement of [125I]-amylin from human AMY3R (CTR+RAMP3) expressed in BHK-13 cells measured after 120 mins by scintillation proximity assay; type: cell-based
Insulin (Homo sapiens) [22] = biological target: Insulin (Homo sapiens) (UniProt P01308); test: Effect on insulin (unknown origin) amyloid fibril formation assessed as peptide recovery in glycyl-glycine buffer at pH 4 measured after 45 hrs by thioflavin-T fluorescence assay relative to control; design: concentration or dose not given beside the values
Rattus norvegicus [23] = test: Reduction in food intake in Sprague-Dawley rat at 30 nmol/kg, sc administered as single dose measured after 24 to 48 hrs relative to control; type: functional; design: scale not given: the % may be the effect or the level left; conditions: time 24-48 hrs
Insulin (Homo sapiens) [24] = biological target: Insulin (Homo sapiens) (UniProt P01308); test: Effect on insulin (unknown origin) amyloid fibril formation assessed as peptide recovery in HEPES buffer at pH 7.5 measured after 45 hrs by thioflavin-T fluorescence assay relative to control
[25] = Solubility of the compound in lactate at pH 4 by UPLC analysis; type: physicochemical; conditions: lactate buffer
Homo sapiens [26] = organism: Homo sapiens; test: Ratio of IC50 for displacement of [125I]-calcitonin from human calcitonin receptor expressed in tk-ts 13 cells to IC50 for displacement of [125I]-amylin from human AMY3R (CTR+RAMP3) expressed in BHK-13 cells; type: cell-based
Rattus norvegicus [27] = test: Reduction in food intake in Sprague-Dawley rat at 3 nmol/kg, sc administered as single dose measured after 24 to 48 hrs relative to control; type: functional; design: scale not given: the % may be the effect or the level left; conditions: time 24-48 hrs
[28] = Solubility of the compound in bis-tris propane at pH 6 by UPLC analysis; type: physicochemical; conditions: bis-tris propane buffer
Insulin (Homo sapiens) [29] = biological target: Insulin (Homo sapiens) (UniProt P01308); test: Effect on insulin (unknown origin) amyloid fibril formation assessed as lag time in glycyl-glycine buffer at pH 4 measured after 45 hrs by thioflavin-T fluorescence assay
[30] = Displacement of [125I]-calcitonin from rat calcitonin receptor expressed in tk-ts 13 cells measured after 120 mins by scintillation proximity assay; type: cell-based; conditions: tk-ts13
Homo sapiens [31] = organism: Homo sapiens; test: Ratio of EC50 for human calcitonin receptor expressed in BHK570 cells to EC50 for human AMY3R (CT+RAMP3) expressed in Hollex1 cells; type: cell-based
[32] = Half life in Sprague-Dawley rat at 10 nmol/kg, iv measured up to 96 hrs by LC-MS analysis; type: ADME, organism-based; conditions: in vivo
[33] = Bioavailability in Sprague-Dawley rat at 10 nmol/kg, sc measured up to 96 hrs by LC-MS analysis; type: ADME, organism-based; conditions: in vivo
Rattus norvegicus [34] = test: Reduction in food intake in Sprague-Dawley rat at 3 nmol/kg, sc administered as single dose measured upto 24 hrs relative to control; type: functional; design: scale not given: the % may be the effect or the level left; conditions: time hrs <=24
[35] = Agonist activity at human calcitonin receptor expressed in BHK570 cells assessed as increase in intracellular cAMP concentration incubated for 3 hrs in absence of albumin by CRE luciferase reporter gene assay; type: cell-based; conditions: BHK570, 3 h

Sequence of Insulin (Homo sapiens) (P01308 whole entry): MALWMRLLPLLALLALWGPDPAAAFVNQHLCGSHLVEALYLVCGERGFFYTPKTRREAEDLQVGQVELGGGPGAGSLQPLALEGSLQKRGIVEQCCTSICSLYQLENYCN

CC[C@H](C)[C@H](NC(=O)[C@@H]1CCCN1C(=O)CNC(=O)[C@H](Cc1ccccc1)NC(=O)[C@H](CC(N)=O)NC(=O)[C@H](CC(N)=O)NC(=O)[C@H](CO)NC(=O)[C@H](CO)NC(=O)[C@H](Cc1c[nH]cn1)NC(=O)[C@H](CCCNC(=N)N)NC(=O)[C@H](CC(C)C)NC(=O)[C@H](Cc1ccccc1)NC(=O)[C@H](CCC(=O)O)NC(=O)[C@H](C)NC(=O)[C@H](CC(C)C)NC(=O)[C@H](CCCNC(=N)N)NC(=O)[C@H](CCC(N)=O)NC(=O)[C@@H](NC(=O)[C@H](C)NC(=O)[C@@H]1CSSC[C@H](NC(=O)[C@H](CCCCN)NC(=O)CC[C@H](NC(=O)CCCCCCCCCCCCCCCCCCC(=O)O)C(=O)O)C(=O)N[C@@H](CC(N)=O)C(=O)N[C@@H]([C@@H](C)O)C(=O)N[C@@H](C)C(=O)N[C@@H]([C@@H](C)O)C(=O)N1)[C@@H](C)O)C(=O)N[C@@H](CC(C)C)C(=O)N1CCC[C@H]1C(=O)N1CCC[C@H]1C(=O)N[C@H](C(=O)N[C@@H](CC(N)=O)C(=O)N[C@H](C(=O)NCC(=O)N[C@@H](CO)C(=O)N[C@@H](CC(N)=O)C(=O)N[C@H](C(=O)N1CCC[C@H]1C(N)=O)[C@@H](C)O)C(C)C)[C@@H](C)O
EC50 [1]: 348 pM | solubility [2]: 200 µM (≈ 882 µg/mL) | solubility [3]: 200 µM (≈ 882 µg/mL) | Vd [4]: 0.109 L/kg | EC50 [5]: 287 pM | clearance [6]: 3.77 mL/h/kg | solubility [7]: 200 µM (≈ 882 µg/mL) | AUC/dose [8]: 87 kg·h/L | Ratio EC50 (Rattus norvegicus [9]): 1 | solubility [10]: 200 µM (≈ 882 µg/mL) | Ratio IC50 (Rattus norvegicus [11]): 1 | IC50 [12]: 520 pM | AUC/dose [13]: 266 kg·h/L | EC50 [14]: 49 pM | solubility [15]: 200 µM (≈ 882 µg/mL) | TIME (Insulin (Homo sapiens) [16]): 41 h | Activity (Rattus norvegicus [17]): 85% | half-life [18]: 27 h | IC50 [19]: 223 pM | solubility [20]: 200 µM (≈ 882 µg/mL) | IC50 [21]: 170 pM | Activity (Insulin (Homo sapiens) [22]): 96% | Activity (Rattus norvegicus [23]): 84% | Activity (Insulin (Homo sapiens) [24]): 76% | solubility [25]: 200 µM (≈ 882 µg/mL) | Ratio IC50 (Homo sapiens [26]): 1 | Activity (Rattus norvegicus [27]): 29% | solubility [28]: 200 µM (≈ 882 µg/mL) | TIME (Insulin (Homo sapiens) [29]): 45 h | IC50 [30]: 681 pM | Ratio EC50 (Homo sapiens [31]): 1 | half-life [32]: 20 h | bioavailability [33]: 30% | Activity (Rattus norvegicus [34]): 40% | EC50 [35]: 62 pM

CC[C@H](C)[C@H](NC(=O)[C@@H]1CCCN1C(=O)CNC(=O)[C@H](Cc1ccccc1)NC(=O)[C@H](CC(N)=O)NC(=O)[C@H](CC(N)=O)NC(=O)[C@H](CO)NC(=O)[C@H](CO)NC(=O)[C@H](Cc1c[nH]cn1)NC(=O)[C@H](Cc1cnc[nH]1)NC(=O)[C@H](CC(C)C)NC(=O)[C@H](Cc1ccccc1)NC(=O)[C@H](CCC(=O)O)NC(=O)[C@H](C)NC(=O)[C@H](CC(C)C)NC(=O)[C@H](CCCNC(=N)N)NC(=O)[C@H](CCC(N)=O)NC(=O)[C@@H](NC(=O)[C@H](C)NC(=O)[C@@H]1CSSC[C@H](NC(=O)[C@H](CCCCN)NC(=O)CC[C@H](NC(=O)CCCCCCCCCCCCCCCCCCC(=O)O)C(=O)O)C(=O)N[C@@H](CC(N)=O)C(=O)N[C@@H]([C@@H](C)O)C(=O)N[C@@H](C)C(=O)N[C@@H]([C@@H](C)O)C(=O)N1)[C@@H](C)O)C(=O)N[C@@H](CC(C)C)C(=O)N1CCC[C@H]1C(=O)N1CCC[C@H]1C(=O)N[C@H](C(=O)N[C@@H](CC(N)=O)C(=O)N[C@H](C(=O)NCC(=O)N[C@@H](CO)C(=O)N[C@@H](Cc1cnc[nH]1)C(=O)N[C@H](C(=O)N[C@@H](Cc1ccc(O)cc1)C(N)=O)[C@@H](C)O)C(C)C)[C@@H](C)O ({C20 diacid-γGlu}-KCNTATCATQRLAEFLHHSSNNFGPILPPTNVGSHTY-NH2; disulfide 2-7)
EC50 [1]: 246 pM | solubility [2]: 109 µM (≈ 488 µg/mL) | solubility [3]: 200 µM (≈ 896 µg/mL) | EC50 [5]: 673 pM | Ratio EC50 (Rattus norvegicus [9]): 3 | solubility [10]: 200 µM (≈ 896 µg/mL) | Ratio IC50 (Rattus norvegicus [11]): 3 | IC50 [12]: 194 pM | EC50 [14]: 145 pM | solubility [15]: 103 µM (≈ 461 µg/mL) | TIME (Insulin (Homo sapiens) [16]): 1 h | Activity (Rattus norvegicus [17]): 88% | IC50 [19]: 1120 pM | IC50 [21]: 1070 pM | Activity (Insulin (Homo sapiens) [22]): 91% | Activity (Rattus norvegicus [23]): 90% | Activity (Insulin (Homo sapiens) [24]): 29% | solubility [25]: 200 µM (≈ 896 µg/mL) | Ratio IC50 (Homo sapiens [26]): 1 | Activity (Rattus norvegicus [27]): 40% | solubility [28]: 200 µM (≈ 896 µg/mL) | TIME (Insulin (Homo sapiens) [29]): 37 h | IC50 [30]: 666 pM | Ratio EC50 (Homo sapiens [31]): 1 | Activity (Rattus norvegicus [34]): 58% | EC50 [35]: 147 pM
